Laboratory results published in patent US20250281500A1, “FUSED AMINO PYRIMIDINE COMPOUNDS AND PRIDOPIDINE FOR TREATMENT OF HUNTINGTON’S DISEASE” (Ovid Therapeutics Inc., priority 2024, published 2025).

What was measured:
[1] = system: panel of 144 protein kinases; assay: SelectScreen panel of 144 protein kinases; assay type: biochemical; conditions: incl. PKC isoforms, OSR1, SPAK, WNK
mice = assay: KA induced ongoing SE, EEG, treatment with DZ or DZ/Compound A 2 h after KA; assay type: in vivo; conditions: given 2 h after KA
Method: EEG recordings and analysis. WT C57Bl/6J adult male mice (12 weeks) were anesthetized with isofluorane and implanted with EEG/EMG electrodes and allowed to recover for 7 days prior to experimentation. […] 2 h following KA administration mice were injected with a saturating concentration of diazepam (DZ) 10 mg/kg (IP) and recordings were extended for a further 60 min. […] LabChart 8 software was used for data analysis. Epileptiform activity was identified by changes in the amplitude of electrographic activity characterized by consistent changes in the power of the Fast Fourier transform (FFT) of the EEG and abnormal activity characterized by periods of rhythmic spiking lasting longer than 30 s (Moore et al., 2017, supra; Silayeva et al., 2015, supra; Sivakumaran et al., J. Neurosci. 35, 8291-8296 (2015)).
To evaluate the potential of KCC2 activators to terminate ongoing SE, the KA model described above was employed. Mice were injected with KA (20 mg/Kg; IP). […] Spectral data were then subjected to FFT and the total EEG power between 1-100 Hz of the 2 h following KA treatment (pre-drug) and 30 min following their injection (post-drug) were compared (FIG. 6B). In mice treated with DZ alone variable effects were observed, from large increases to modest reductions in EEG power, but these effects were not significant (FIG. 6C; pre=1.1±0.2×10^−6, post=4.4±7.4×10^−7 μV^2, p=0.214, n=13-14 mice). […]

Structure (SMILES)	activity of a panel of 144 protein kinases [1]	mice insensitive to the effects of DZ on EEG power (mice)
C[C@@H]1CN(c2nc3c(c(Nc4ccc(C5CCCCC5)cc4)n2)COC3)CCO1 [Compound A, (R)-N-(4-cyclohexylphenyl)-2-(2-methylmorpholino)-5,7-dihydrofuro[3,4-d]pyrimidin-4-amine]	did not modify the activity	abolished
CN1C(=O)CN=C(c2ccccc2)c2cc(Cl)ccc21 [DZ, diazepam, reference compound]	–	62%
